Here are results for one compound from patent publication US20260294863A1, “METHOD OF TREATING FIBROTIC-RELATED CONDITION” (YISSUM RESEARCH DEVELOPMENT COMPANY OF THE HEBREW …, priority 2023, published 2026).

Assay [1] has as its system BzATP/LPS-activated microglia. Briefly: Gene expression (RNA-seq) in BzATP/LPS-activated microglia. Format: cell-based, Balb/C mice. As to conditions: 1×10^−10 M, 8 hrs after BzATP/LPS. The protocol:
(§1) Experiments were performed on primary microglial cells isolated from brains of neonatal Balb/C mice as previously described (Reichert and Rotshenker, 2003). The brains were stripped of their meninges and enzymatically dissociated. Cells were plated on Poly-L-lysine coated flasks for one week, re-plated for 1- to 2-hr on bacteriological plates and non-adherent cells were washed away. Microglia were propagated by incubation in 20% of medium, conditioned by the L-cell line that produces mouse-CSF. They were identified by morphology and positive immune-reactivity to P2y12, F4/80, complement receptor-3 and Galectin-3/MAC-2 (Reichert and Rotshenker 2003; Gitik et al. 2011).
Ladostigil (1×10^−10 M) was added to microglia for 2 hrs before BzATP/LPS. Cells were harvested before and 8 hr after addition of BzATP/LPS. Total RNA was extracted using the RNeasy Plus Universal Mini Kit (QIAGEN) according to the manufacturer's protocol. Total RNA samples (1 μg RNA) were enriched for mRNAs by pull-down of poly A. Libraries were prepared using the KAPA Stranded mRNA-Seq Kit according to the manufacturer's protocol and sequenced using Illumina NextSeq 500 to generate 85 bp single-end reads (total 25-30 million reads per sample) as described in Zohar et al. (2021).
Next-generation sequencing data underwent quality control using FastQC. They were then preprocessed using Trimmomatic (Bolger et al. 2014) and aligned to the reference genome GRCm38 with the STAR aligner (Dobin et al. 2013) using default parameters. Genomic loci were annotated using GENCODE version M25 (Frankish et al. 2019). Genes with low expression were filtered out of the dataset by setting a threshold of a minimum of 2 counts-per-million in three samples.
Pair-wise differential analyses were performed between all […] BzATP/LPS time points and genes with an FDR <0.01 were considered.

The test system of a further assay is TNFα. Briefly: TNFα in bronchial fluid, bleomycin-induced lung fibrosis (ELISA). The format is in vivo, C57BL/6JOlaHsd mice. As to conditions: ladostigil, bleomycin-induced lung fibrosis. Here is the method: (§2) The animal model of bleomycin-induced lung fibrosis is widely used to characterize the potential inhibitory effect of newly developed drugs (Distler et al. 2019). Experiments were performed in C57BL/6JOlaHsd male and female mice aged 12-13 weeks. Male mice weighed 23-27.3 g and female mice, 19.4-21.1 g. They were housed under pathogen-free conditions, up to 6 per cage, in IVC cages under a controlled temperature of 22-24° C., humidity and alternating 12-h light/dark cycles and provided with food and water ad libitum. In order to minimize the stress of daily injection, ladostigil (5 mg/Kg/day) was administered by micro-osmotic pumps, implanted subcutaneously under ketamine/xylazine anesthesia, 5 days before administration of bleomycin, and delivered for 3 weeks to mice of each sex. Saline (2-3/sex) and bleomycin controls were anesthetized as described above. Bleomycin solution (0.25 mg/kg in 50 μl) was instilled into the lumen of the trachea as shown in a video by Ehrentraut et al. (2019). […] TNFα and IL-6 in the bronchial fluid lavage was measured by ELISA as described in the preceding section.
(§3) Experiments were performed in C57BL/6JOlaHsd male mice aged 12-13 weeks as described for ladostigil. […] Fibrosis was measured by staining with Sirius red as described for ladostigil. TNFα and IL-6 in the bronchial fluid lavage was measured by ELISA as described for ladostigil.
(In general: An ELISA detects its analyte on a solid surface through an enzyme-linked reagent.)

A further assay deals with IL-6. As to the kind of experiment: IL-6 in bronchial fluid, bleomycin-induced lung fibrosis (ELISA). The format is in vivo, C57BL/6JOlaHsd mice. As to conditions: ladostigil, bleomycin-induced lung fibrosis. Here is the method:
as §2, §3

The nature of assay [2]: Mortality in bleomycin-induced lung fibrosis. Format: in vivo, C57BL/6JOlaHsd mice. Here is the method: The animal model of bleomycin-induced lung fibrosis is widely used to characterize the potential inhibitory effect of newly developed drugs (Distler et al. 2019). Experiments were performed in C57BL/6JOlaHsd male and female mice aged 12-13 weeks. Male mice weighed 23-27.3 g and female mice, 19.4-21.1 g. They were housed under pathogen-free conditions, up to 6 per cage, in IVC cages under a controlled temperature of 22-24° C., humidity and alternating 12-h light/dark cycles and provided with food and water ad libitum. […] Saline (2-3/sex) and bleomycin controls were anesthetized as described above. Bleomycin solution (0.25 mg/kg in 50 μl) was instilled into the lumen of the trachea as shown in a video by Ehrentraut et al. (2019). […] Mice were weighed daily and sacrificed on day 21. Bronchial fluid was collected as described in Ehrentraut et al. (2019). TNFα and IL-6 in the bronchial fluid lavage was measured by ELISA as described in the preceding section.

In assay [3] the test system is primary mouse microglial cultures activated by lipopolysaccharide (LPS). The note with it: cited from earlier work.
Another assay relates to EGR1. Briefly: Nuclear levels of EGR1 in microglia activated by BzATP and LPS. The format is cell-based, Balb/C mice. Here is the method:
as §1
The addition of BzATP/LPS to microglia increased cytoplasmic levels of TNFαIP3 protein and nuclear ERGR1 protein.

Entries after “also recorded” stand apart in the source; their conditions may differ.

Consider `C#CCN[C@@H]1CCc2ccc(OC(=O)N(C)CC)cc21` [Ladostigil, 6-(N-ethyl, N-methylcarbamyloxy)-N propargyl-1 (R)-aminoindan hemitartrate], for which, in assay [1], the Egr1 gene expression result is “downregulated”, the Egr2 gene expression entry is recorded as “downregulated”, the Mmp12 gene expression result is “downregulated” and the “TNFαIP3 (A20) gene expression” value is reported as “up-regulated”. For the same compound, in assay [1], the Timp1 gene expression entry is “downregulated” and the “number of genes significantly altered in expression” value turned out to be 25 genes. For the same compound, the “TNFα in bronchial fluid” value in the assay on TNFα is reported as “generally not affected; also recorded: did not reduce”. Moreover, the “IL-6 in bronchial fluid” value with IL-6 is recorded as “generally not affected; also recorded: did not reduce”. The mortality – broadly, the share of the test organisms that died – in assay [2] (females, ladostigil+bleomycin, 2.5 mg/kg (2/10)) is 20%. In assay [2] (females, ladostigil+bleomycin, 5 mg/kg (1/20)), the mortality is listed as 5%. Besides, the “mortality (animals died/total)” value in assay [2] (females, ladostigil+bleomycin, dose not given) is 1/11. Besides, the mortality in assay [2] (males, bleomycin+ladostigil 5 mg/kg, day 17 (2/9)) was 22%. Besides, the mortality in assay [2] (males, ladostigil 10 mg/kg, day 17 (1/11)) amounted to 9%. Besides, in assay [3], the IL1β gene expression entry is on record as “decreased gene expression”, the IL-6 gene expression entry is listed as “decreased gene expression” and the TNFα gene expression entry is reported as “decreased gene expression”. In the assay with EGR1 (BzATP/LPS, ladostigil 1×10^−10 M, Medium 19.0 ± 4.2), the “Mean percent of nuclei with positive EGR1 protein immunoreactivity ± SEM” value was determined as 56.0 ± 3.9%. For the same compound, the “change in nuclear EGR1 protein” value in the assay on EGR1 (microglia, ladostigil 1×10^−10 M on top of BzATP/LPS) is recorded as “decreased”.
